From PubChem BioAssay (NCI) come the findings set out here.

Among the test systems are 786-0 renal; A549 NSCLC; CAKI-1 renal; HOP-92 NSCLC; MALME-3M melanoma; NCI-H226 lung; NCI-H23 lung; NCI-H460 lung; OVCAR-3 ovarian; OVCAR-5 ovarian; SF-295 CNS; SK-OV-3 ovarian; TK-10 renal; U251 CNS; CCRF-CEM leukemia; HL-60(TB) leukemia; LOX IMVI melanoma; OVCAR-8 ovarian; T-47D breast.
What all share (experiment): NCI-60 cell line screen, 48 h

Each structure is given as a SMILES string.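 Cells were grown in 96-well plates and exposed to each compound for 48 hours at five concentrations; endpoints were interpolated linearly between bracketing concentrations, or set to the highest concentration if not reached. Definition used: TGI = concentration required for complete inhibition of growth.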

For `NCCC(=O)N[C@@H](Cc1cc(O)c(O)c(SCC(NC(=O)CC[C@H](N)C(=O)O)C(=O)NCC(=O)O)c1)C(=O)O` (stereo partly specified), the TGI with 786-0 renal, with A549 NSCLC, in the test with CAKI-1 renal, in the test on HOP-92 NSCLC, with MALME-3M melanoma and in the test with NCI-H226 lung was more than 50 µM each time. Besides, the TGI in the test with NCI-H23 lung, in the test with NCI-H460 lung, with OVCAR-3 ovarian, in the test on OVCAR-5 ovarian, in the test with SF-295 CNS and with SK-OV-3 ovarian was more than 50 µM each time. Besides, the TGI with TK-10 renal and with U251 CNS was more than 50 µM throughout.

Take `COC(=O)CSC(=S)Nc1nnc(NC(=S)SCOC(C)=O)n1C(=S)SCC(=O)OC`: the TGI with 786-0 renal, with CAKI-1 renal, in the test with CCRF-CEM leukemia, with HL-60(TB) leukemia, in the test with LOX IMVI melanoma and with NCI-H23 lung was more than 100 µM throughout. Besides, the TGI in the test on NCI-H460 lung, with OVCAR-3 ovarian, with OVCAR-5 ovarian, in the test on SF-295 CNS and in the test on U251 CNS was more than 100 µM each time.

Regarding `CN(CC(=O)O)c1ncc2c(n1)-c1ccccc1OC2`, the TGI with 786-0 renal, in the test with A549 NSCLC, with CAKI-1 renal, in the test with CCRF-CEM leukemia, in the test with HL-60(TB) leukemia and in the test on HOP-92 NSCLC was more than 100 µM each time. Also, the TGI with LOX IMVI melanoma, with MALME-3M melanoma, in the test on NCI-H23 lung, with NCI-H460 lung, with OVCAR-5 ovarian and in the test on OVCAR-8 ovarian was more than 100 µM each time. Also, the TGI with SF-295 CNS, with TK-10 renal and in the test on U251 CNS was more than 100 µM each time.

Take `Clc1cc(Br)c2c3c(c(Br)cc(Cl)c13)C(Br)=C2Br`: the TGI is 47.7 µM with 786-0 renal; more than 100 µM with A549 NSCLC; 56 µM in the test with HL-60(TB) leukemia; 32.2 µM with LOX IMVI melanoma; more than 100 µM with MALME-3M melanoma; more than 100 µM in the test on NCI-H226 lung. The TGI in the test on NCI-H460 lung is more than 100 µM; in the test with OVCAR-3 ovarian, more than 100 µM; with OVCAR-5 ovarian, more than 100 µM; with OVCAR-8 ovarian, 93 µM; in the test on SF-295 CNS, more than 100 µM; in the test on SK-OV-3 ovarian it was more than 100 µM. Besides, the TGI is 46.6 µM in the test with TK-10 renal and more than 100 µM in the test on U251 CNS.

For `COc1cc(N(Cc2ccc3nc(OC)c(OC)nc3c2)Cc2ccc3nc(OC)c(OC)nc3c2)cc(OC)c1OC`, the TGI with 786-0 renal, in the test with A549 NSCLC, in the test on CAKI-1 renal, in the test with HL-60(TB) leukemia, with LOX IMVI melanoma and in the test on MALME-3M melanoma was more than 50 µM in each case. The TGI in the test with NCI-H226 lung, with NCI-H23 lung, in the test with OVCAR-3 ovarian, in the test on OVCAR-5 ovarian, in the test on OVCAR-8 ovarian and in the test with SF-295 CNS was more than 50 µM throughout. Also, the TGI in the test on SK-OV-3 ovarian, in the test with T-47D breast, with TK-10 renal and with U251 CNS was more than 50 µM throughout.

Regarding `C[Si](C)(OCCS(=O)(=O)O)OC(=C1S(=O)(=O)OCCOS1(=O)=O)c1cccc2ccccc12`, the TGI in the test with 786-0 renal was more than 100 µM; in the test on A549 NSCLC, more than 100 µM; in the test on CAKI-1 renal, more than 100 µM; in the test on CCRF-CEM leukemia it was more than 100 µM; in the test with HL-60(TB) leukemia, 36.9 µM; with HOP-92 NSCLC it was more than 100 µM. The TGI in the test on LOX IMVI melanoma, in the test with MALME-3M melanoma, in the test on NCI-H226 lung, in the test on NCI-H23 lung, with NCI-H460 lung and in the test with OVCAR-3 ovarian was more than 100 µM in each case. For the same molecule, the TGI with OVCAR-5 ovarian, in the test with OVCAR-8 ovarian, with SF-295 CNS, in the test on TK-10 renal and in the test with U251 CNS was more than 100 µM throughout.

As for `COc1ccc2[nH]cc(CCNC(=O)[C@](O)(Cc3cn(C)c4ccccc34)[C@@]3(O)OCC(O)C3O)c2c1` (stereo partly specified), the TGI in the test with 786-0 renal, in the test with A549 NSCLC, in the test with CAKI-1 renal, with CCRF-CEM leukemia, with HL-60(TB) leukemia and in the test with HOP-92 NSCLC was more than 100 µM throughout. For the same molecule, the TGI in the test on LOX IMVI melanoma, with MALME-3M melanoma, with NCI-H226 lung, in the test with NCI-H23 lung, in the test on NCI-H460 lung and in the test with OVCAR-3 ovarian was more than 100 µM throughout. Further, the TGI with OVCAR-5 ovarian, in the test on OVCAR-8 ovarian, in the test with SF-295 CNS, in the test on SK-OV-3 ovarian, in the test with TK-10 renal and in the test on U251 CNS was more than 100 µM each time.

Take `CNc1nnc(CNc2ccc(-c3nnc(NC)n3N)cc2)n1N`: the TGI with 786-0 renal, in the test with A549 NSCLC, with CAKI-1 renal, with CCRF-CEM leukemia, in the test with HL-60(TB) leukemia and in the test on HOP-92 NSCLC was more than 100 µM each time. Moreover, the TGI in the test on LOX IMVI melanoma, in the test on NCI-H226 lung, in the test with NCI-H23 lung, in the test on NCI-H460 lung, in the test with OVCAR-3 ovarian and in the test on OVCAR-5 ovarian was more than 100 µM in each case. The TGI in the test on OVCAR-8 ovarian, in the test on SF-295 CNS, in the test on SK-OV-3 ovarian, in the test on TK-10 renal and in the test on U251 CNS was more than 100 µM each time.

As for `CC(C)SC(NC(=O)C1C(C)(C)CCC1(C)C)C(=O)O` (stereo unspecified), the TGI with 786-0 renal, in the test on A549 NSCLC, with CCRF-CEM leukemia, in the test with HL-60(TB) leukemia, in the test with HOP-92 NSCLC and in the test with LOX IMVI melanoma was more than 100 µM each time. The TGI in the test on NCI-H226 lung, with NCI-H23 lung, with NCI-H460 lung, in the test with OVCAR-5 ovarian, in the test on OVCAR-8 ovarian and with SK-OV-3 ovarian was more than 100 µM throughout. Besides, the TGI with TK-10 renal and in the test with U251 CNS was more than 100 µM each time.
